Test results: patent US6713492B1, “N-acyloxylated cycloalkyl compounds, composition containing the same and methods of use therefor” (Daiichi Radioisotope Laboratories, Ltd., priority 1998, dated 2004)

Key:
Esterase, Porcine Liver = assay: Test for measuring enzyme activity: hydrolysis of the sample by esterase, followed by ESR; assay type: in vitro ADME; settings: 1 mM sample solution, esterase 0.2-200 U/ml in phosphate buffered saline pH7.4, one minute, oxidised to nitroxide
Experimental: Capability of enzyme (esterase) activity determination by ESR using 1-acetoxy-3-carbamoyl-2,2,5,5-tetramethylpyrrolidine was examined. Esterase (3360 U/ml, manufactured by Sigma Co., Esterase, Porcine Liver) was diluted with a phosphate buffered saline solution (pH7.4, 67 mM) to concentrations of 0.2, 2, 20, and 200 U/ml. 100 μl of each diluent was added to 100 μl of a 1 mM sample solution, and allowed to stand for one minute. Specifically, the sample was converted into a hydroxylamine derivative using the esterase. Next, 10 μl of 10 mM sodium periodide phosphate buffered saline solution was added. Specifically, the hydroxylamine derivative produced was converted into a nitroxide derivative which can be measured by ESR. Finally, this solution is suctioned into a flat cell (manufactured by Labotech Co.) to measure ESR spectrum using “JES-REIX” manufactured by JEOL Ltd after one minute.
In addition, it was confirmed that the esterase activity can be measured by using this reaction.

rat brain = assay: Measurement of ESR-CT image of rat brain after intraperitoneal administration; assay type: in vivo, Wister male rats; settings: 6 ml of 150 mM saline solution intraperitoneally, ESR-CT 20 minutes after administration
Experimental: 6 ml of 150 mM physiological saline solution of 1-acetoxy-3-carbamoyl-2,2,5,5-tetramethylpyrrolidine was intraperitoneally administered to Wister male rats (200 g, age: nine weeks) anesthesized with pentobarbital. The head of the rat was secured so that the part of the head 9 mm ahead of the external auditory meatus came to the center of the resonator. ESR-CT was measured 20 minutes after administration. The measuring conditions of ESR-CT were as follows.
(Measurement Conditions of ESR-CT)
Instrument: 700 MHz band electron spin resonance apparatus
Microwave frequency: 720 MHz
Central magnetic field: 25 mT
Magnetic field sweep width: 15 mT
Magnetic field modulation width: 0.2 mT
Magnetic field modulation frequency: 100 kHz
Magnetic field gradient: 1 mT/cm
Magnetic field gradient rotational angle: 20°
The measured black-and-white picture image is shown in FIG. 2, and a color picture image is attached as a reference figure. In FIG. 2, A is a rat brain ESR-CT image 1 mm posterior to the bregma, and B is a rat brain ESR-CT image 3 mm posterior to the bregma. FIG. 3 is a drawing describing the part of the brain indicated by the anatomical chart in FIG. 2.

Compound | hydrolysis by esterase (ESR signal strength vs esterase concentration) (Esterase, Porcine Liver) | transfer to the brain and conversion to nitroxide derivative (rat brain) | melting point
CC(=O)ON1C(C)(C)CC(C(N)=O)C1(C)C (stereo not drawn) [1-Acetoxy-3-carbamoyl-2,2,5,5-tetramethylpyrrolidine] | hydrolyzed by esterase in a short time and the reaction is quantitative | hydrolyzed after being transferred to the brain, and oxidized by intracerebral active oxygen and free radicals into a nitroxide derivative | 150 to 151 °C
CC(=O)OC1CC(C)(C)N(OC(C)=O)C(C)(C)C1 [Example 5, 1,4-Diacetoxy-2,2,6,6-tetramethylpiperidine] |  |  | 72 to 73 °C
CC1(C)CC(C(N)=O)C(C)(C)N1OC(=O)c1ccccc1 (stereo not drawn) [Example 4, 1-Benzoyloxy-3-carbamoyl-2,2,5,5-tetramethylpyrrolidine] |  |  | 199 to 201 °C
CCC(=O)ON1C(C)(C)CC(C(N)=O)C1(C)C (stereo not drawn) [Example 2, 1-Propionyloxy-3-carbamoyl-2,2,5,5-tetramethylpyrrolidine] |  |  | 116 to 117 °C
